Reference: US5168101A, “Sulfonamide derivatives” (Ono Pharmaceutical Co., Ltd., priority 1987, dated 1992)

Legend:
[1] = system: increasing of blood pressure in guinea pigs; assay: Stimulatory effect on increasing of blood pressure in guinea pigs (agonistic effect on TXA2); assay type: in vivo; conditions: 100 μg/kg, i.v. (n = 2~4)
Text: (§1) For example, in a standard laboratory test, the effects were possible to be confirmed by (i) inhibitory effect on increasing of blood pressure induced by STA2 in guinea pigs (antagonistic effect) and (ii) stimulatory effect on increasing of blood pressure in guinea pigs (agnostic effect).
(§2) Inhibitory effect on increasing of blood pressure induced by TXA2 in guinea pigs and stimulatory effect on increasing of blood pressure in guinea pigs: A 7% sodium bicarbonate buffer solution (pH 7.6~8.6) of each tested compounds was administered intravenously via carotid vein or orally to a urethane-anaesthetized male guinea pig weighing 250~350 g, at a rate of 100 μg/kg animal body weight. Increasing of blood pressure was measured in guinea pigs administered test compounds intravenously. On the other hand, to guinea pigs administered test compounds orally, then a solution of STA2 in phosphate buffer (pH 7.4) was administered. Change of the blood pressure was measured at carotid artery and then inhibition ratio (%) was calculated.

[2] = system: increasing of blood pressure induced by STA2; assay: Inhibitory effect on increasing of blood pressure induced by STA2 in guinea pigs; assay type: in vivo; conditions: 100 μg/kg
Experimental: (iii) Inhibitory effect on increasing of blood pressure induced by STA2 in guinea pigs: A 7% sodium bicarbonate buffer solution (pH 7.6-8.6) of each tested compounds was administered intravenously via carotid vein or orally to a urethane-anaesthetized male guinea pig weighing 250~350 g, at a rate of 10-1000 μg/kg animal body weight. And then guinea pigs were administered intravenously a solution of STA2 in phosphate buffer (pH 7.4). change of the blood pressure was measured at carotid artery and then inhibition ratio (%) was calculated.
as §1, §2

[3] = system: platelet aggregation induced by STA2 in human blood; assay: Inhibitory effect on platelet aggregation induced by STA2 in human blood; assay type: cell-based; conditions: platelet aggregation induced by STA2 in human blood (platelet rich plasma, method of Born); read-out: Inhibitory effects on platelet aggregation (IC50)
Text: For example, in a standard laboratory test, the effects were possible to be confirmed by (i) inhibitory effect on platelet aggregation induced by STA2 (9α, 11α-epithio-15α-hydroxy-11α-carbathromba-5Z,13E-dienoic acid) in human blood, (ii) inhibitory effect on contraction of smooth muscle induced by STA2 in guinea pigs or (iii) inhibitory effect on increasing of blood pressure induced by STA2 in guinea pigs (intravenously and orally).
(i) Inhibitory effect on platelet aggregation induced by STA2 in human blood: Whole blood of healthy human adult was collected with citric acid, and the mixture (20 ml) was centrifuged (180×g) for 10 min. The supernatant obtained was diluted with sufficient platelet poor plasma to obtain plasma which contains 300,000 platelet cells power μl. A solution of tested compound in ethanol (1 μl) was added to the obtained plasma (250 μl), and then a solution of STA2 is ethanol was added to the mixtures. The measurement was carried out followed by the method of Born and then IC50 was calculated.

SMILES	IC50 [3]	(ii) Effect of increasing of blood pressure in guinea pig [1]	(i) Duration of more than 50% inhibit increasing of blood pressure induced STA2 pig [2]
Cc1ccc(S(=O)(=O)N[C@H]2[C@H]3CC[C@H](C3)[C@@H]2C/C=C\CCCC(N)=O)cc1	–	9 mmHg	> 340 min
O=C(O)CCC/C=C\[C@H]1C[C@@H]2CC[C@H]1[C@@H](NS(=O)(=O)c1ccc(Br)cc1)C2 (relative stereo) [1 (a), (5Z)-6-[(1R*, 2R*, 4S*, 6S*)-6-(4-bromobenzenesulfonylamino)bicyclo[2.2.2]octan-2-yl]hex-5-enoic acid]	660 nM	–	–
O=C(O)CCC/C=C\[C@H]1C[C@@H]2C[C@H]1[C@@H](NS(=O)(=O)c1ccc(Br)cc1)C2 (relative stereo) [1 (c), (5Z)-6-[(1R*, 2R*, 4R*, 6S*)-6-(4-bromobenzenesulfonylamino)bicyclo[2.2.1]heptan-2-yl]hex-5-enoic acid]	1000 nM	–	–
O=C(O)CCC/C=C\[C@@H]1CC[C@H](NS(=O)(=O)c2ccc(Br)cc2)C1 [1 (i), (5Z)-6-[(1R, 3S)-3-(4-bromobenzenesulfonylamino)cyclopentyl]hex-5-enoic acid]	30 nM	–	–
CCCCCCCCOC(=O)CCC/C=C\[C@@H]1[C@H]2CC[C@H](C2)[C@H]1CNS(=O)(=O)c1ccc(Br)cc1 [5 (g), octyl(5Z)-6-[(1S, 2S, 3R, 4R)-3-[N-(4-bromobenzenesulfonyl)aminomethyl]bicyclo[2.2.1]heptan-2-yl]hex-5-enoate]	–	1 mmHg	> 300 min
CC(C)[C@@H]1CC[C@@H](C)C[C@H]1OC(=O)CCC/C=C\[C@@H]1[C@H]2CC[C@H](C2)[C@H]1CNS(=O)(=O)c1ccc(Br)cc1 [5 (h), menthyl(5Z)-6-[(1S, 2S, 3R, 4R)-3-[N-(4-bromobenzenesulfonyl)aminomethyl]bicyclo[2.2.1]heptan-2-yl]hex-5-enoate]	–	1 mmHg	> 300 min
NC(=O)CCC/C=C\[C@@H]1[C@H]2CC[C@H](C2)[C@H]1CNS(=O)(=O)c1ccc(Br)cc1 [6 (d), (5Z)-6-[(1S, 2S, 3R, 4R)-3[N-(4-bromobenzenesulfonyl)aminomethyl]bicyclo[2.2.1]heptan-2-yl]hex-5-enamide]	–	6 mmHg	> 240 min
Cc1ccc(S(=O)(=O)N[C@H]2[C@H]3CC[C@H](C3)[C@@H]2C/C=C\CCCC(=O)NC(C)C(=O)O)cc1 (stereo partly drawn) [7 (b), amide of (5Z)-7-[(1R, 2S, 3S, 4S)-3-tosylaminobicyclo[2.2.1]heptan-2-yl]hept-5-enoic acidand alanine]	–	11 mmHg	> 290 min
Cc1ccc(S(=O)(=O)N[C@H]2[C@H]3CC[C@H](C3)[C@@H]2C/C=C\CCCC(=O)NC(CCC(=O)O)C(=O)O)cc1 (stereo partly drawn) [7 (c), amide of (5Z)-7-[(1R, 2S, 3S, 4S)-3-tosylaminobicyclo[2.2.1]heptan-2-yl]hept-5-enoic acidand glutamic acid]	–	7 mmHg	> 290 min
Cc1ccc(S(=O)(=O)N[C@H]2[C@H]3CC[C@H](C3)[C@@H]2C/C=C\CCCC(=O)NCC(=O)O)cc1 [Example 7, Amide of (5Z)-7-[(1R, 2S, 3S, 4S)-3-tosylaminobicyclo [2.2.1]heptan-2-yl]hept-5-enoic acid and glycine]	–	9 mmHg	> 270 min
Cc1ccc(S(=O)(=O)N[C@H]2[C@H]3CC[C@H](C3)[C@@H]2C/C=C\CCCC(=O)N[C@@H](CCCCN)C(=O)O)cc1 [Example 8, Amide of (5Z)-7-[(1R, 2S, 3S, 4S)-3-tosylaminobicyclo [2.2.1]heptan-2-yl]hept-5-enoic acid and lysine]	–	7 mmHg	305 min
Cc1ccc(S(=O)(=O)N[C@H]2[C@H]3CC[C@H](C3)[C@@H]2C/C=C\CCCC(=O)O)cc1 [The compared compound, reference compound]	–	36 mmHg	205 min

Continued, in another order:

IC50 [3]	SMILES	(ii) Effect of increasing of blood pressure in guinea pig [1]	(i) Duration of more than 50% inhibit increasing of blood pressure induced STA2 pig [2]
170 nM	O=C(O)CCC/C=C\[C@@H]1CCC[C@H](NS(=O)(=O)c2ccc(Br)cc2)C1 (relative stereo) [1 (m), (5Z)-6-[(1R*, 3S*)-3-(4-bromobenzenesulfonylamino)cyclohexyl]hex-5-enoic acid]	–	–
90 nM	Cc1ccc(S(=O)(=O)NC[C@H]2[C@H]3CC[C@H](C3)[C@@H]2/C=C\CCCC(=O)O)cc1 (relative stereo) [1 (p), (5Z)-6-[(1R*, 2R*, 3S*, 4S*)-3-[N-tosylaminomethyl]bicyclo[2.2.1]heptan-2-yl]hex-5-enoic acid]	–	–
520 nM	O=C(O)CCC/C=C\[C@H]1CCCC[C@@H]1CNS(=O)(=O)c1ccc(Br)cc1 (relative stereo) [1 (t), (5Z)-6-[(1R*, 2S*,)-2-[N-(4-bromobenzenesulfonyl)aminometh-yl]cyclohexan-1-yl]hex-5-enoicacid]	–	–
220 nM	O=C(O)CCC/C=C\[C@H]1CCC[C@@H]1CNS(=O)(=O)c1ccc(Br)cc1 (relative stereo) [1 (v), (5Z)-6-[(1R, 2S*)-2-[N-(4-bromobenzenesulfonyl)aminomethyl]cyclopentan-1-yl]hex-5-enoic acid]	–	–
680 nM	Cc1ccc(S(=O)(=O)NC[C@H]2CCC[C@@H]2/C=C\CCCC(=O)O)cc1 (relative stereo) [1 (w), (5Z)-6-[(1R, 2S*)-2-[N-tosylaminomethyl]cyclopentan-1-yl]hex-5-enoic acid]	–	–
1780 nM	Cc1ccc(S(=O)(=O)N[C@@H]2C[C@@H]3C[C@H](C/C=C\CCCC(=O)O)[C@H]2C3)cc1 (relative stereo) [4 (a)]	–	–
1670 nM	O=C(O)CCC/C=C\[C@H]1[C@@H]2CC[C@@H](C2)[C@@H]1CNS(=O)(=O)c1ccccc1 [1 (q), (5Z)-6-[(1R, 2R, 3S, 4S)-3-(N-benzenesulfonylaminomethyl)bicyclo[2.2.1]heptan-2-yl]hex-5-enoic acid]	–	–
280 nM	O=C(O)CCC/C=C\[C@H]1[C@@H]2CC[C@@H](C2)[C@@H]1CNS(=O)(=O)c1ccc(Br)cc1 [1 (r), (5Z)-6[(1R, 2R, 3S, 4S)-3-[N-(4-bromobenzenesulfonyl)aminomethyl]bicyclo[2.2.1]heptan-2-yl]hex-5-enoic acid]	–	–
520 nM	Cc1ccc(S(=O)(=O)NCC2C3CCC(C3)C2C=CCCCC(=O)O)cc1 [1 (s), (5Z)-6-[(1S, *2S*, 3S*, 4R*)-3-[N-tosylaminomethyl]bicyclo[2.2.1]heptan-2-yl]hex-5-enoic acid]	–	–
1000 nM	O=C(O)CCC/C=C\[C@H]1[C@@H]2CC[C@@H](C2)[C@@H]1CCNS(=O)(=O)c1ccc(Br)cc1 [1 (u), (5Z)-6-[(1R, 2R, 3S, 4S)-3-[2-[N-(4-bromobenzenesulfonyl)amino]ethyl]bicyclo[2.2.1]heptan-2-yl]hex-5-enoic acid]	–	–
50 nM	Cc1ccc(S(=O)(=O)NC[C@@H]2[C@@H]3CC[C@@H](C3)[C@H]2/C=C\CCCC(=O)O)cc1 [1 (x), (5Z)-6-[(1S, 2S, 3R, 4R)-3-[N-tosyl-aminomethyl]bicyclo[2.2.1]heptan-2-yl]hex-5-enoic acid]	–	–
10 nM	O=C(O)CCC/C=C\[C@@H]1[C@H]2CC[C@H](C2)[C@H]1CNS(=O)(=O)c1ccc(Br)cc1 [1 (y), (5Z)-6-[(1S, 2S, 3R, 4R)-3-[N-(4-bromobenzenesulfonyl)aminomethyl]bicyclo[2.2.1]heptan-2-yl]hex-5-enoic acid]	–	–
